Target: Sphingosine 1-phosphate receptor 5 (Homo sapiens, UniProt Q9H228)
Test: In Vitro Functional Activity (Agonism) on Human S1P5 Receptors: The CHO-human-S1P5-Aeqorin assay was bought from Euroscreen, Brussels (Euroscreen, Technical dossier, Human Lysophospholid S1P5 (Edg8) receptor, DNA clone and CHO AequoScreen™ recombinant cell-line, catalog no: ES-593-A, September 2006). Human-S1P5-Aequorin cells express mitochondrial targeted apo-Aequorin. Cells have to be loaded with coelanterazine, in order to reconstitute active Aequorin. After binding of agonists to the human S1P5 receptor the intracellular calcium concentration increases and binding of calcium to the apo-Aequorin/coelenterazine complex leads to an oxidation reaction of coelenterazine, which results in the production of apo-Aequorin, coelenteramide, CO2 and light ([…]max 469 nm). This luminescent response is dependent on the agonist concentration. Luminescence is measured using the MicroBeta Jet (Perkin Elmer). Agonistic effects of compounds are expressed as pEC50. Compounds were tested at a 10 points half log concentration range, and 3 independent experiments were performed in single point's measurements.
Assay type: cell-based

Sphingosine 1-phosphate receptor 5, sequence (Q9H228 whole entry): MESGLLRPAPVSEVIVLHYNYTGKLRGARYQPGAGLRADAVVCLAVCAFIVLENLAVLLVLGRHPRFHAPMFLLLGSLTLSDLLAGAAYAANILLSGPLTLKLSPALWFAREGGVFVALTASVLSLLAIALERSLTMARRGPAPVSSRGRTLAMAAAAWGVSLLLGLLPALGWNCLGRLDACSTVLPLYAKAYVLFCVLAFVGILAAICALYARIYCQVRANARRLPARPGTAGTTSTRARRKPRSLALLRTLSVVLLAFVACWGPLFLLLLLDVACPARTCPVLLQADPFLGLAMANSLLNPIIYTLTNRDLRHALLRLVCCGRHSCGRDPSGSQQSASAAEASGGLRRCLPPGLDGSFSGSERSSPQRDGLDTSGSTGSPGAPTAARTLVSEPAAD

Compound	EC50
O=C(O)CCN1CCCC2(COc3cc(OCc4c(Cl)cccc4C(F)(F)F)ccc32)C1 (configuration not stated)	50.1 nM
CC(C)c1cccc(F)c1COc1ccc2c(c1)OCC21CCN(CCC(=O)O)CC1	50.1 nM
